Data from PubChem BioAssay (NCI).
Values joined by “and” are separate entries in the source; they are usually repeats but may differ in a detail not shown here. Equal entries are not always repeated.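 Cells were grown in 96-well plates and exposed to each compound for 48 hours at five concentrations; endpoints were interpolated linearly between bracketing concentrations, or set to the highest concentration if not reached. The concentration for 50% growth inhibition is given as GI50. TGI marks complete inhibition of growth.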

System: MDA-MB-468 breast
Assay: NCI-60 cell line screen, 48 h

COCCOc1ccc2ncc(C#Cc3cncc(C(=O)Nc4ccc(CN5CCN(C)CC5)c(C(F)(F)F)c4)c3)n2n1
GI50: 988 nM
TGI: 2800 nM

COc1cc(C2CC(c3ccc(C)cc3)=NN2C=O)ccc1Oc1ccnc2cc(Cl)ccc12 (configuration not stated)
GI50: 2590 nM
TGI: 37800 nM

C=C1C(=O)O[C@H]2[C@H]1CC/C(Cn1cc(CNC(=O)Cc3cn(C(=O)c4ccc(Cl)cc4)c4ccc(OC)cc34)nn1)=C\CC[C@@]1(C)O[C@@H]21
GI50: 1220 nM
TGI: 2950 nM

Cc1ccc(-[n+]2c3cc(N)c(C)cc3nc3cc(C)c(Nc4ccccc4)cc32)cc1
GI50: 108 nM
TGI: 371 nM

C=C1CC2(OC1=O)C(=O)N(CCCCCCCN1C(=O)C3(CC(=C)C(=O)O3)c3ccccc31)c1ccccc12 (configuration not stated)
GI50: 984 nM
TGI: 3740 nM

Cc1ccc2[nH]cc(-c3nc(-c4c[nH]c5ncccc45)cs3)c2c1
GI50: > 100000 nM
TGI: > 100000 nM

COc1cc2c(cc1OC)C(=O)/C(=C/c1cccc(OCC(=O)c3ccccc3)c1)C2
GI50: 8210 nM
TGI: > 100000 nM

CC(=O)Nc1ccc2c(c1)c(C1=C(c3cn(C)c4ccccc34)C(=O)NC1=O)cn2C
GI50: 790 nM
TGI: > 25000 nM

CCOC(=O)c1ccc(NC(=O)N2CC(C)OC(C)C2)cc1 (configuration not stated)
GI50: > 100000 nM
TGI: > 100000 nM

Cc1ccc(CNc2c3ccccc3nc3ccccc23)cc1
GI50: 1490 nM
TGI: 3680 nM

CS(=O)(=O)CCNCc1nc(-c2ccc3ncnc(Nc4ccc(F)c(Cl)c4)c3c2)cs1
GI50: 257 nM
TGI: 2750 nM

COc1ccc(-c2nn3ncccc3c2-c2ccnc(Nc3ccc(Cl)c(C(F)(F)F)c3)n2)cc1
GI50: 5810 nM
TGI: > 20900 nM

CNC(=O)c1cc(OC2CCC(NC(=O)Nc3ccc(Cl)c(C(F)(F)F)c3)CC2)ccn1 (configuration not stated)
GI50: 3350 nM
TGI: 14500 nM

COc1ccc(-c2nc3sc(C)cn3c2/C=C/C(=O)c2cc(OC)c(OC)c(OC)c2)cc1
GI50: 2760 nM
TGI: 9350 nM

COc1ccc2nc(N/N=C(\C)c3ccccn3)cc(C)c2c1
GI50: 233 nM
TGI: 815 nM

O=c1oc2cc(OS(=O)(=O)c3ccc(F)cc3)ccc2c2c1CCCCC2
GI50: 3870 nM
TGI: > 100000 nM

CN(C)c1cccc2c(S(=O)(=O)N[C@H]3CC[C@H]4[C@@H]5CCc6cc(O)ccc6[C@H]5CC[C@]34C)cccc12
GI50: 2100 nM
TGI: 9710 nM

CC(=O)O[C@H]1CC[C@@]2(C)C(=CC[C@@H]3[C@@H]2CC[C@]2(C)C(c4cccnc4)=CC[C@@H]32)C1
GI50: 2620 nM
TGI: 17500 nM

O=C(Nc1ccc(N2CCNCC2)cc1)c1[nH]ncc1Nc1ncnc2sc3c(c12)CCC3
GI50: 481 nM
TGI: 2230 nM

O=[N+]([O-])C1C(c2ccccc2)C12c1ccccc1-c1ccccc12 (configuration not stated)
GI50: 582 nM
TGI: 13600 nM

CCN(CC)CCOc1nc2ccc(OC)cc2c2c1-c1ccc(OC)cc1C2=O
GI50: 3370 nM
TGI: 21700 nM

Cc1cc(-c2ncc(CC(=O)Nc3ccc(-c4cnccn4)cn3)cc2C)ccn1
GI50: 3180 nM
TGI: 57500 nM

O=C(CCCCCCSc1nc(-c2ccccc2)cc(-c2ccc(Cl)cc2)n1)NO
GI50: 2020 nM
TGI: 5790 nM

COc1ccc(Cl)cc1Nc1nc(C(F)(F)F)ccc1C(=O)N/N=C/c1c(Cl)cccc1Cl
GI50: 6660 nM
TGI: > 100000 nM

COc1cc(-c2nn(-c3ccc(NC(=O)c4ccc(Cl)c(Cl)c4)cc3)cc2-c2ccncc2)ccc1Cl
GI50: 4350 nM
TGI: > 100000 nM

O=C1NCc2ccc3c(-c4cccc(Cl)c4)c[nH]c3c21
GI50: 231 nM
TGI: > 23100 nM

O=C(CSc1nc2ccccc2[nH]1)Nc1ccc(-c2nc3ccccc3s2)c(Cl)c1
GI50: 4450 nM
TGI: > 100000 nM

CCOc1cc2ncc(C#N)c(Nc3ccc(OCc4cccc(F)c4)c(Cl)c3)c2cc1NC(=O)CC1CCSS1 (configuration not stated)
GI50: 427 nM
TGI: 1220 nM

O=C(NNc1nc(Cl)nc(N2CCN(C(c3ccccc3)c3ccccc3)CC2)n1)c1ccccc1
GI50: 1900 nM
TGI: 6030 nM

COc1cc(C2C=C(c3cccc(NC(C)=O)c3)Nc3ncnn32)cc(OC)c1OC (configuration not stated)
GI50: 852 nM
TGI: > 23800 nM

COc1cc(/C(C#N)=C/c2ccc3c(c2OC)OCO3)cc2c1OCO2
GI50: 59.2 nM
TGI: 2070 nM

CNc1ccc2nc3ccc(=[N+](C)C)cc-3sc2c1
GI50: 801 nM and 542 nM
TGI: 2890 nM and 3050 nM

CCOC(=O)c1c2c(n3ccc(NC(=O)CCN4CCCC4)cc13)C(=O)c1ncccc1C2=O
GI50: 1710 nM
TGI: 3350 nM

C=C1C(=O)O[C@H]2[C@H]1CC/C(COC(=O)c1cc3cc(F)ccc3[nH]1)=C\CC[C@@]1(C)O[C@@H]21
GI50: 1860 nM
TGI: 3790 nM

COc1ccc2c(c1)[nH]c(=O)c1c3cc(C)c(C)cc3cn21
GI50: 155 nM
TGI: 1590 nM

COC(=O)N[C@H]1CCc2c(Br)c(OC)c(OC)c(OC)c2-c2ccc(SC)c(=O)cc21
GI50: < 10 nM
TGI: 1230 nM
